Test results published in PMC11480411, “Mucosal sugars delineate pyrazine vs pyrazinone autoinducer signaling in Klebsiella oxytoca” (Nature Communications, 2024).
Where “and” joins values, the source holds several entries; their conditions need not be identical. Equal entries are not always repeated.

Columns and labels:
∆pyr K. oxytoca = assay: RNA-seq of compound-supplemented ∆pyr K. oxytoca; assay type: cell-based, Klebsiella oxytoca ATCC 8724; details: 10 µM
Procedure: A ∆pyr K. oxytoca glycerol stock was streaked onto an LB-Agar plate supplemented with spectinomycin (50 µg/mL) and incubated aerobically at 30°C for 24 h in a stationary incubator. Single colonies were grown for 24 h aerobically in 5 mL of M9 minimal medium supplemented with 5 g/L casamino acids and 0.4% D-galactose at 30 °C and 250 rpm. Each ∆pyr K. oxytoca overnight culture was diluted 1:1000 into fresh medium (5 mL) and incubated aerobically at 30 °C and 250 rpm to mid-exponential growth (OD600 = 0.8). These conditions abrogated both detectable pyrazine and pyrazinone production. At this point, 10 µM of compound in DMSO, were added to the cultures; an equal volume of DMSO was added to cultures without compound as a solvent vehicle control. The cultures were incubated under aerobic conditions with the compounds for one hour at 30 °C and at 250 rpm. After incubation, the cultures were centrifuged, the supernatants were decanted, and the cell pellets were quickly resuspended in 5 mL of Bacterial RNAProtect (Qiagen). The samples were centrifuged again, and the pellets were frozen on dry ice and stored at −80 °C until RNA extraction. The processed cell pellets were thawed on ice and resuspended in 200 µL of lysis buffer (10 mM Tris, 1 mM EDTA, 5 mg/mL lysozyme, 12.5 µg/mL proteinase K [pH 8.0]) and incubated at room temperature for 10 min. The RNA was extracted via the Qiagen RNeasy Mini kit, treated with TURBO DNase in a total volume of 100 µL at room temperature for 30 min, and extracted again using an RNeasy Mini kit. RNA-seq analysis was conducted by the Yale Center for Genome Analysis. Sequences were aligned to the K. oxytoca ATCC 8724 genome (NC_016612.1). Differential expression analysis was performed through DESeq2 and pathway enrichment analysis was performed through the Funage-Pro web-based platform.

[1] = biological target: T1, histamine receptor H4 (HRH4) (Homo sapiens, UniProt Q9H3N8); assay: PRESTO-Tango GPCR screen and dose-response; assay type: cell-based; details: for HRH4 dose-response raw reporter signal (Fig. 5b source data): replicate wells
T1 construct: expressed in transfected cells; host or cells: HTLA cells (HEK293 line stably expressing β-arrestin-TEV and tTA-Luciferase)
T1 sequence (Q9H3N8 whole entry): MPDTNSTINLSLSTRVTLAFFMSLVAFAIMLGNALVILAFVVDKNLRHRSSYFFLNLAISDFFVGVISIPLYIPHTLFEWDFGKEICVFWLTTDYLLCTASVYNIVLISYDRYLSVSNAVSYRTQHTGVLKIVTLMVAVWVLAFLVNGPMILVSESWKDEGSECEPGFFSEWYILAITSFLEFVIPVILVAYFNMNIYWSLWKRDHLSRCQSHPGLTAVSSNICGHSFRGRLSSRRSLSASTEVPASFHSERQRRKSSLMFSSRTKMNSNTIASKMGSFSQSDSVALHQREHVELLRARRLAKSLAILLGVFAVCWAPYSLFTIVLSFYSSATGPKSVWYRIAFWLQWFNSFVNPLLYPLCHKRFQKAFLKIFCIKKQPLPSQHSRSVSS
Procedure: (§1) The PRESTO-Tango analyses were performed as previously published. Briefly, HTLA cells, a HEK293 cell line that stably expresses β-arrestin-TEV and tTA-Luciferase (a kind gift from Gilad Barnea, Brown University), were plated in 96-well tissue culture plates (Eppendorf) in DMEM containing 10% FBS and 1% Penicillin/Streptomycin. One day after plating (after reaching approximately 90% confluence), 200 ng per well GPCR-Tango plasmids[37] in 20 μL DMEM were individually mixed with 400 ng polyethylenimine (Polysciences) in an equal volume of DMEM and incubated for 20 min at room temperature before adding the transfection mixture to the HTLA cells. 16-24 h after transfection, medium was replaced with 180 μL fresh DMEM containing 1% Penicillin/Streptomycin and 10 mM HEPES and 20 μL of 3 or 3-Homo to reach a final concentration of 100 μM. Supernatants were aspirated 20 h after stimulation and 50 μl per well of Bright-Glo solution (Promega) diluted 20-fold with PBS containing 20 mM HEPES was added into each well. After 15 min incubation at room temperature, luminescence was quantified using a Spectramax i3x microplate reader (Molecular Devices). Activation fold for each sample was calculated by dividing relative luminescence units (RLU) for each condition by RLUs from PBS control. Dose response curves of each chemical were performed in a similar way with varying the ligand concentration from 10^−4 M to 10^−15 M.

HRH2 = biological target: T2, HRH2 (Homo sapiens, UniProt P25021); assay: PRESTO-Tango GPCR screen and dose-response; assay type: cell-based; details: for HRH2 dose-response raw reporter signal (Fig. 5b source data): replicate wells
T2 construct: expressed in transfected cells; host or cells: HTLA cells (HEK293 line stably expressing β-arrestin-TEV and tTA-Luciferase)
T2 sequence (P25021 whole entry): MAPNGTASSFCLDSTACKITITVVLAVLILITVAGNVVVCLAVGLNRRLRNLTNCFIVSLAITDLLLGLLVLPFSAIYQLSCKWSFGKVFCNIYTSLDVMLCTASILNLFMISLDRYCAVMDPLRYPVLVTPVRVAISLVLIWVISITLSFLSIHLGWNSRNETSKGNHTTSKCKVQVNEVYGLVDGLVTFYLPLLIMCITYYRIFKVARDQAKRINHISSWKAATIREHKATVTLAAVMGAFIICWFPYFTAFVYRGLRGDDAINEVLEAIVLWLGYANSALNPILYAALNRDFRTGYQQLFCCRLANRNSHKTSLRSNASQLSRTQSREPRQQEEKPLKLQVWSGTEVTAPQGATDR
Procedure: as §1

HRH1 = biological target: T3, HRH1 (Homo sapiens, UniProt P35367); assay: PRESTO-Tango GPCR screen and dose-response; assay type: cell-based; details: for HRH1 dose-response raw reporter signal (Fig. 5b source data): replicate wells
T3 construct: expressed in transfected cells; host or cells: HTLA cells (HEK293 line stably expressing β-arrestin-TEV and tTA-Luciferase)
T3 sequence (P35367 whole entry): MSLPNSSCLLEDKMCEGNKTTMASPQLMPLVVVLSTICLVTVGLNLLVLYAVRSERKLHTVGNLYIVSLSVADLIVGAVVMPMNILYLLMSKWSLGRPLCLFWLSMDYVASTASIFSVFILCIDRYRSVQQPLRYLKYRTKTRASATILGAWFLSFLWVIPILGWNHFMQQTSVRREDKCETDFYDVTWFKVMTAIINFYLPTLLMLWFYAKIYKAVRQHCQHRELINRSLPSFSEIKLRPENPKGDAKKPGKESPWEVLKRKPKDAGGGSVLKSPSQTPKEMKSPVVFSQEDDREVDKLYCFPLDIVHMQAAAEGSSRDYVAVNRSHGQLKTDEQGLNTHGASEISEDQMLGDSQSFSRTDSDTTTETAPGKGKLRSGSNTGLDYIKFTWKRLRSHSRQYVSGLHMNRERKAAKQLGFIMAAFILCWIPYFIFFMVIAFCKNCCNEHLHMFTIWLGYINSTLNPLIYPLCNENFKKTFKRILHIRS
Procedure: as §1

HRH3 = biological target: T4, HRH3 (Homo sapiens, UniProt Q9Y5N1); assay: PRESTO-Tango GPCR screen and dose-response; assay type: cell-based; details: for HRH3 dose-response raw reporter signal (Fig. 5b source data): replicate wells
T4 construct: expressed in transfected cells; host or cells: HTLA cells (HEK293 line stably expressing β-arrestin-TEV and tTA-Luciferase)
T4 sequence (Q9Y5N1 whole entry): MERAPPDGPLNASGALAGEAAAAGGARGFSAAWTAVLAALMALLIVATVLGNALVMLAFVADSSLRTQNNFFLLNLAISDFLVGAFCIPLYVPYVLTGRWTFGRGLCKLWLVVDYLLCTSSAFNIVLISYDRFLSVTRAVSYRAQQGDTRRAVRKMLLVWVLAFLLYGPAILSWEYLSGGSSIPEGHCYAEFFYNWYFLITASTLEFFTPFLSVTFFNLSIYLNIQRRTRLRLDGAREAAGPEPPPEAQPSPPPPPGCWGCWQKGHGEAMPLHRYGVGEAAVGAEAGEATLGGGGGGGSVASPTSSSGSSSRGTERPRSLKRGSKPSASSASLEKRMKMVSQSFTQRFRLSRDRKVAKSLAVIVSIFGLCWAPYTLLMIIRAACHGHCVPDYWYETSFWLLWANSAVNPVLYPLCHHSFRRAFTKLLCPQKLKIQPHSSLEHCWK
Procedure: as §1

## Cc1cnc(CCC(=O)O)c(Cc2ccccc2)n1 [compound 7]
∆pyr K. oxytoca; one hour, vs DMSO, Padj < 0.05, abs(log2FC) > 1
  number of differentially regulated genes: 644 genes
∆pyr K. oxytoca; vs DMSO control, RNA-seq
  effect on enterobactin BGC transcription: significantly enhanced transcription of the enterobactin BGC
∆pyr K. oxytoca; Funage-Pro, 7 downreg
  KEGG pathway enrichment neglogP: Citrate cycle, downregulated: 3.041
  KEGG pathway enrichment neglogP: Glycerolipid metabolism, downregulated: 4.481
  KEGG pathway enrichment neglogP: Nitrogen metabolism, downregulated: 3.06
∆pyr K. oxytoca; Funage-Pro, 7 upreg
  KEGG pathway enrichment neglogP: ABC Transporters, upregulated: 4.602
  KEGG pathway enrichment neglogP: Biosynthesis of siderophore group nonribosomal peptides, upregulated: 5.301
  KEGG pathway enrichment neglogP: Oxidative phosphorylation, upregulated: 3.252
  KEGG pathway enrichment neglogP: Phenylalanine Metabolism, upregulated: 4.301
∆pyr K. oxytoca; RNA-seq, pyrazine 7 compared with pyrazinone 3
  effect on cytochrome-related operons transcription: prominently upregulated
[1]; Log(10)Conc (M) -5
  HRH4 dose-response raw reporter signal (Fig. 5b source data): 245 and 339
[1]; Log(10)Conc (M) -6
  HRH4 dose-response raw reporter signal (Fig. 5b source data): 295 and 333
[1]; Log(10)Conc (M) -7
  HRH4 dose-response raw reporter signal (Fig. 5b source data): 242 and 304
[1]; Log(10)Conc (M) -8
  HRH4 dose-response raw reporter signal (Fig. 5b source data): 271 and 336
[1]; Log(10)Conc (M) -9
  HRH4 dose-response raw reporter signal (Fig. 5b source data): 425 and 324
[1]; Log(10)Conc (M) -10
  HRH4 dose-response raw reporter signal (Fig. 5b source data): 307 and 401
[1]; Log(10)Conc (M) -11
  HRH4 dose-response raw reporter signal (Fig. 5b source data): 312 and 366
[1]; Log(10)Conc (M) -12
  HRH4 dose-response raw reporter signal (Fig. 5b source data): 242 and 292
[1]; Log(10)Conc (M) -13
  HRH4 dose-response raw reporter signal (Fig. 5b source data): 256 and 383
[1]; Log(10)Conc (M) -14
  HRH4 dose-response raw reporter signal (Fig. 5b source data): 271 and 304
[1]; Log(10)Conc (M) -15
  HRH4 dose-response raw reporter signal (Fig. 5b source data): 286 and 230
[1]; PRESTO-Tango dose-response
  activity towards HRH4: no activity
HRH2; Log(10)Conc (M) -4
  HRH2 dose-response raw reporter signal (Fig. 5b source data): 62 and 50 and 47
HRH2; Log(10)Conc (M) -5
  HRH2 dose-response raw reporter signal (Fig. 5b source data): 47 and 50 and 83
HRH2; Log(10)Conc (M) -6
  HRH2 dose-response raw reporter signal (Fig. 5b source data): 18 and 53 and 71
HRH2; Log(10)Conc (M) -7
  HRH2 dose-response raw reporter signal (Fig. 5b source data): 50 (2×) and 74
HRH2; Log(10)Conc (M) -8
  HRH2 dose-response raw reporter signal (Fig. 5b source data): 44 and 35 and 56
HRH2; Log(10)Conc (M) -9
  HRH2 dose-response raw reporter signal (Fig. 5b source data): 97 and 65 and 41
HRH2; Log(10)Conc (M) -10
  HRH2 dose-response raw reporter signal (Fig. 5b source data): 56 and 32 and 21
HRH2; Log(10)Conc (M) -11
  HRH2 dose-response raw reporter signal (Fig. 5b source data): 18 and 53 and 44
HRH2; Log(10)Conc (M) -12
  HRH2 dose-response raw reporter signal (Fig. 5b source data): 32 and 65 and 68
HRH2; Log(10)Conc (M) -13
  HRH2 dose-response raw reporter signal (Fig. 5b source data): 35 and 62 and 97
HRH2; Log(10)Conc (M) -14
  HRH2 dose-response raw reporter signal (Fig. 5b source data): 32 and 47 and 68
HRH2; Log(10)Conc (M) -15
  HRH2 dose-response raw reporter signal (Fig. 5b source data): 77 and 53 and 71
HRH2; PRESTO-Tango dose-response
  activity towards HRH2: no activity
HRH1; Log(10)Conc (M) -4
  HRH1 dose-response raw reporter signal (Fig. 5b source data): 51351 and 49812 and 56357
HRH1; Log(10)Conc (M) -5
  HRH1 dose-response raw reporter signal (Fig. 5b source data): 52012 and 52029 and 55110
HRH1; Log(10)Conc (M) -6
  HRH1 dose-response raw reporter signal (Fig. 5b source data): 48657 and 55248 and 53819
HRH1; Log(10)Conc (M) -7
  HRH1 dose-response raw reporter signal (Fig. 5b source data): 47504 and 53144 and 54812
HRH1; Log(10)Conc (M) -8
  HRH1 dose-response raw reporter signal (Fig. 5b source data): 48011 and 51622 and 55024
HRH1; Log(10)Conc (M) -9
  HRH1 dose-response raw reporter signal (Fig. 5b source data): 49795 and 49308 and 52115
HRH1; Log(10)Conc (M) -10
  HRH1 dose-response raw reporter signal (Fig. 5b source data): 46794 and 49653 and 52654
HRH1; Log(10)Conc (M) -11
  HRH1 dose-response raw reporter signal (Fig. 5b source data): 47026 and 50225 and 51761
HRH1; Log(10)Conc (M) -12
  HRH1 dose-response raw reporter signal (Fig. 5b source data): 51855 and 50992 and 52000
HRH1; Log(10)Conc (M) -13
  HRH1 dose-response raw reporter signal (Fig. 5b source data): 49320 and 51552 and 55349
HRH1; Log(10)Conc (M) -14
  HRH1 dose-response raw reporter signal (Fig. 5b source data): 48035 and 52604 and 51817
HRH1; Log(10)Conc (M) -15
  HRH1 dose-response raw reporter signal (Fig. 5b source data): 39264 and 44810 and 48161
HRH1; PRESTO-Tango dose-response
  activity towards HRH1: no activity
HRH3; Log(10)Conc (M) -4
  HRH3 dose-response raw reporter signal (Fig. 5b source data): 106 and 112 and 159
HRH3; Log(10)Conc (M) -5
  HRH3 dose-response raw reporter signal (Fig. 5b source data): 124 and 133 and 80
HRH3; Log(10)Conc (M) -6
  HRH3 dose-response raw reporter signal (Fig. 5b source data): 56 and 106 and 124
HRH3; Log(10)Conc (M) -7
  HRH3 dose-response raw reporter signal (Fig. 5b source data): 83 and 106 and 180
HRH3; Log(10)Conc (M) -8
  HRH3 dose-response raw reporter signal (Fig. 5b source data): 112 and 142 and 106
HRH3; Log(10)Conc (M) -9
  HRH3 dose-response raw reporter signal (Fig. 5b source data): 97 and 112 and 139
HRH3; Log(10)Conc (M) -10
  HRH3 dose-response raw reporter signal (Fig. 5b source data): 139 and 97 and 159
HRH3; Log(10)Conc (M) -11
  HRH3 dose-response raw reporter signal (Fig. 5b source data): 91 and 139 and 136
HRH3; Log(10)Conc (M) -12
  HRH3 dose-response raw reporter signal (Fig. 5b source data): 118 and 124 and 203
HRH3; Log(10)Conc (M) -13
  HRH3 dose-response raw reporter signal (Fig. 5b source data): 59 and 109 and 130
HRH3; Log(10)Conc (M) -14
  HRH3 dose-response raw reporter signal (Fig. 5b source data): 85 and 142 and 124
HRH3; Log(10)Conc (M) -15
  HRH3 dose-response raw reporter signal (Fig. 5b source data): 53 and 91 and 112
HRH3; PRESTO-Tango dose-response
  activity towards HRH3: no activity
